Reference: US6498183B1, “Substituted indole sulfonamides as anitviral agents” (Bayer Aktiengesellschaft, priority 1999, dated 2002)
pEC50: −log10 of the molar value.

Experiments:
[1] = tested on: human cytomegalovirus (HCMV); assay: anti-HCMV screening test (cytopathogenic effect) in HELF cell cultures; assay type: cell-based; conditions: Human betaherpesvirus 5; HCMV-infected HELF cells, 96-well plates; concentration giving 50% inhibition of virus activity (CPE, Neutral Red)
Procedure: The anti-HCMV action was determined in a screening test system in 96-well microtitre plates with the assistance of human embryonic lung fibroblasts (HELF) cell cultures. The affect of these substances on the extent of the cytopathogenic effect was determined by comparison with the reference substance ganciclovir (Cymevene^R sodium), a clinically approved anti-HCMV chemotherapeutic agent (EC50, corresponding to the effective concentration at which a 50% inhibition of virus activity is achieved).
The substances dissolved (50 mM) in DMSO (dimethyl sulphoxide) are investigated on microtitre plates (96-well) in duplicate determinations (4 substances/plate). Toxic and cytostatic effects of the substances are also detected thereby (CC50, corresponding to the concentration at which half the cells are destroyed owing to administration of the substance). […]
After this time, the cell lawn in the virus controls free of substance, starting from 50-100 infectious centres, is completely destroyed by the cytopathogenic effect of the HCMV (100% CPE). After staining with Neutral Red and fixing with formalin/methanol, the plates are evaluated using a projection microscope (plaque viewer).

[2] = toxic and cytostatic effects on HELF cells in the anti-HCMV screening test; assay type: cell-based; conditions: human, concentration at which half the cells are destroyed
Procedure: The substances dissolved (50 mM) in DMSO (dimethyl sulphoxide) are investigated on microtitre plates (96-well) in duplicate determinations (4 substances/plate). Toxic and cytostatic effects of the substances are also detected thereby (CC50, corresponding to the concentration at which half the cells are destroyed owing to administration of the substance). After the appropriate substance dilutions (1:2) on the microtitre plate, a suspension of 50-100 HCMV-infected HELF cells and […] uninfected HELF cells in Eagle's MEM with 10% fetal calf serum are put in each well, and the plates are incubated at 37° C. in a CO2 incubator for several days. After this time, the cell lawn in the virus controls free of substance, starting from 50-100 infectious centres, is completely destroyed by the cytopathogenic effect of the HCMV (100% CPE). After staining with Neutral Red and fixing with formalin/methanol, the plates are evaluated using a projection microscope (plaque viewer).

pEC50 [1]	Structure (SMILES)	CC50 [2] [µM]
7.26	CCn1ccc2cc(S(=O)(=O)Nc3cccc(NC(=O)C(C)(C)CF)c3)ccc21 [Example 1, N-[(N-Ethylindole)-5-sulphonyl]-N′-(3-fluoro-2,2-dimethylpropanoyl)-1,3-diamino-benzene]	15.6
6.41	CC(=O)n1ccc2cc(S(=O)(=O)Nc3ccc(C(=O)NC(C)(C)C)cc3)ccc21 [Example 2, 4-[N-Acetylindole-5-sulphonylamino]-N-(tert-butyl)benzamide]	86
